In patent US9850287B2, “Means and methods for breaking noncovalent binding interactions between molecules” (Het Nederlands Kanker Instituut, priority 2005, dated 2017):

Molecular target: T1, HLA-A2.1 multimers (Homo sapiens, UniProt P04439, D140Y/D185E/D98H/E176V/E277Q/G131W/G231S/I119V/I121R/I166T/I218V/N151K/N90K/P208A/P217A/Q86G/Q94H/R138H/R169H)
T1 construct: made in house
Assay type: physicochemical

Row | Substance | effect of UV exposure on amount of MHC complex recovered
1 | GIL*FVFTL (SEQ ID NO:3) [G4*] | substantial reduction in the amount of MHC complex recovered
2 | GILGFVF*L (SEQ ID NO:4) [T8*] | substantial reduction in the amount of MHC complex recovered
